In test [1] the target is T1, stromelysin (MMP-3) (Homo sapiens, UniProt P08254).
T1 construct: enzymatic activity of the catalytic domains of human stromelysin and of neutrophil collagenase; made in house
The test is described as follows: Enzyme inhibition of the catalytic domain of human stromelysin (fluorogenic substrate). Format: biochemical. As to conditions: 15 min preincubation, pH=6.5, fluorescence 328 nm (ex)/393 nm (em). Here is the method:
(§1) Preparation and determination of the enzymatic activity of the catalytic domains of human stromelysin and of neutrophil collagenase.
(§2) The enzymes stromelysin (MMP-3) and neutrophil collagenase (MMP-8) were prepared according to Ye et al. (Biochemistry; 31 (1992) pages 11231-11235). To measure the enzyme activity or the enzyme inhibitor action, 70 μl of buffer solution and 10 μl of enzyme solution are incubated for 15 min with 10 μl of a 10% strength (v/v) aqueous dimethyl sulfoxide solution, which optionally contains the enzyme inhibitor. After addition of 10 μl of a 10% strength (v/v) aqueous dimethyl sulfoxide solution which contains 1 mil/L of the substrates, the enzyme reaction is monitored by fluorescence spectroscopy (328 nm (ex)/393 nm(em)). The enzyme activity is shown as the extinction increase/min. The IC50 values listed in Table 2 are determined as those inhibitor concentrations which in each case lead to a 50% inhibition of the enzyme.
(§3) The buffer solution contains 0.05% Brij (Sigma, Deisenhofen, Germany) and also 0.1 mol/L tris/HCl, 0.1 mol/L NaCl, 0.01 mol/L CaCl2 and 0.1 mol/L piperazine-N,N′-bis(2-ethanesulfonic acid) (pH=6.5). The enzyme solution contains 5 μg/ml of one of the enzyme domains prepared according to Ye et al. The substrate solution contains 1 mil/L of the fluorogenic substrate (7-methoxycoumarin-4-yl)acetyl-Pro-Leu-Gly-Leu-3-(2′,4′-dinitrophenyl)-L-2,3-diaminopropionyl-Ala-Arg-NH2 (Bachem, Heidelberg, Germany).

In test [2] the target is T2, neutrophil collagenase (MMP-8) (Homo sapiens, UniProt P22894).
T2 construct: enzymatic activity of the catalytic domains of human stromelysin and of neutrophil collagenase; made in house
T2 sequence (P22894 100-262 limits assumed): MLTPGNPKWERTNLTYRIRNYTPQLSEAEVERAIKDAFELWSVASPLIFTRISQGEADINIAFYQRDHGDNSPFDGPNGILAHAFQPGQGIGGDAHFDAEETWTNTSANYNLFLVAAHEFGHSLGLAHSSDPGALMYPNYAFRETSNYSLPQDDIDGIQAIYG
The test is described as follows: Enzyme inhibition of the catalytic domain of neutrophil collagenase (fluorogenic substrate). Format: biochemical. As to conditions: 15 min preincubation, pH=6.5, fluorescence 328 nm (ex)/393 nm (em). How it is done:
as §1, §2, §3

46 compounds from patent US6355673B1, “Substituted diaminocarboxylic acids” (Aventis Pharma Deutschland GmbH, priority 1997, dated 2002) can be followed below.

For orientation: IC50 means the concentration needed to halve the response being measured. High values mean weaker potency, low ones greater potency.

T1 sequence (P08254 100-272 limits assumed): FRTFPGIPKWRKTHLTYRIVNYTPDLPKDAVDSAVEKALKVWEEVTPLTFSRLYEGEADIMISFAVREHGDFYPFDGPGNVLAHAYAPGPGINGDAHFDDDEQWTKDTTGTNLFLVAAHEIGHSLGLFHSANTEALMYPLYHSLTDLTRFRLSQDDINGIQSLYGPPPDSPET

With `O=C(CCc1ccccc1)NCCC[C@H](NS(=O)(=O)c1ccc(-c2ccc(Cl)cc2)cc1)C(=O)O` [Example 133], the concentration for half-maximal inhibition (IC50) in test [1] worked out at 5 nM; in test [2], 2 nM.

For the compound `NC(=O)NCCCC[C@H](NS(=O)(=O)c1ccc(-c2ccc(Cl)cc2)cc1)C(=O)O` [Example 24], the IC50 in test [1] amounted to 30 nM; in test [2], 5 nM. With `CC(C)COC(=O)NCCC[C@H](NS(=O)(=O)c1ccc(-c2ccc(Cl)cc2)cc1)C(=O)O` [Example 118], the IC50 in test [1] was 10 nM; in test [2], 4 nM.

Turning to `O=C(NCCC[C@H](NS(=O)(=O)c1ccc(-c2ccccc2)cc1)C(=O)O)c1ccccc1O` [Example 45], the IC50 in test [1] was determined as 20 nM; in test [2], 4 nM.

On to `O=C(CC(C(=O)O)c1ccccc1)NCCC[C@H](NS(=O)(=O)c1ccc(-c2ccc(Cl)cc2)cc1)C(=O)O` (stereo partly shown) [Example 55], for which the results for the IC50 in test [1] and in test [2] were 7 nM and 3 nM, respectively.

`O=C(/C=C/c1ccc(Cl)cc1)NCCC[C@H](NS(=O)(=O)c1ccc(-c2ccc(Cl)cc2)cc1)C(=O)O` [Example 132]: the values for the IC50 in test [1] and in test [2] were 30 nM and 10 nM, respectively. Consider `O=C(NCCC[C@H](NS(=O)(=O)c1ccc(-c2ccc(Cl)cc2)cc1)C(=O)O)c1ccc2[nH]cnc2c1` [Example 141], for which the IC50 in test [1] and in test [2] was 10 nM each time.

With `O=C(NCCC[C@H](NS(=O)(=O)c1ccc(-c2ccc(Cl)cc2)cc1)C(=O)O)c1ccccn1` [Example 50], the IC50 is 6 nM in test [1] and 2 nM in test [2]. `O=C(NCCC[C@@H](NS(=O)(=O)c1ccc(-c2ccc(Cl)cc2)cc1)C(=O)O)C1CC1` [Example 41]: the IC50 turned out to be 5 nM in test [1] and 2 nM in test [2].

For the compound `O=C(NCCC[C@H](NS(=O)(=O)c1ccc(-c2ccc(Cl)cc2)cc1)C(=O)O)c1ccc(Cc2ccccc2)cc1` [Example 103], the IC50 in test [1] was 70 nM; in test [2], 60 nM. The matching figures for `COc1ccc(C(=O)NCCC[C@H](NS(=O)(=O)c2ccc(-c3ccc(Cl)cc3)cc2)C(=O)O)c(OC)c1` [Example 104]: 30 nM and 8 nM.

Regarding `O=C(CC[C@H](C(=O)O)c1ccccc1)NCCC[C@H](NS(=O)(=O)c1ccc(-c2ccc(Cl)cc2)cc1)C(=O)O` [Example 79], the IC50 in test [1] came to 5 nM; in test [2] it was 2 nM. The matching figures for `CC1CC1C(=O)NCCC[C@H](NS(=O)(=O)c1ccc(-c2ccc(Cl)cc2)cc1)C(=O)O` (stereo partly shown) [Example 69]: 4 nM and 2 nM. Take `O=C(NCCC[C@H](NS(=O)(=O)c1ccc(-c2ccc(Cl)cc2)cc1)C(=O)O)C1CCC1` [Example 66]: the half-inhibitory concentration (IC50) in test [1] worked out at 10 nM; in test [2], 2 nM. As for `CC(=O)Oc1ccccc1C(=O)NCCC[C@H](NS(=O)(=O)c1ccc(-c2ccccc2)cc1)C(=O)O` [Example 44], the IC50 in test [1] is 30 nM; in test [2], 6 nM. Consider `O=C(NCCC[C@H](NS(=O)(=O)c1ccc(-c2ccc(Cl)cc2)cc1)C(=O)O)c1ccc(F)c(F)c1` [Example 87], for which the IC50 was 30 nM in test [1] and 10 nM in test [2]. The matching figures for `O=C(/C=C/C1C=NC=N1)NCCC[C@H](NS(=O)(=O)c1ccc(-c2ccc(Cl)cc2)cc1)C(=O)O` (stereo partly shown) [Example 140]: 60 nM and 20 nM. Regarding `O=C(CCCc1ccccc1)NCCC[C@H](NS(=O)(=O)c1ccc(-c2ccc(Cl)cc2)cc1)C(=O)O` [Example 157], the IC50 in test [1] was determined as 40 nM; in test [2], 7 nM.

Consider `O=C(NCCC[C@@H](NS(=O)(=O)c1ccc(-c2ccc(Cl)cc2)cc1)C(=O)O)c1ccc2c(c1)OCO2` [Example 48], for which the results for the IC50 in test [1] and in test [2] were 20 nM and 7 nM, respectively.

For `O=C(O)[C@H](CCCNC(=O)N1CCCC1)NS(=O)(=O)c1ccc(-c2ccc(Cl)cc2)cc1` [Example 143], the IC50 amounted to 5 nM in test [1] and 2 nM in test [2].

As for `O=C(CC[C@@H](C(=O)O)c1ccccc1)NCCC[C@H](NS(=O)(=O)c1ccc(-c2ccc(Cl)cc2)cc1)C(=O)O` [Example 80], the IC50 was found to be 10 nM in test [1] and 3 nM in test [2]. In the case of `O=C(NCCC[C@H](NS(=O)(=O)c1ccc(-c2ccc(Cl)cc2)cc1)C(=O)O)c1ccccc1O` [Example 74], the IC50 in test [1] turned out to be 10 nM; in test [2], 3 nM. For `O=C(NCCC[C@H](NS(=O)(=O)c1ccc(-c2ccc(Cl)cc2)cc1)C(=O)O)c1cccc(F)c1F` [Example 97], the 50% inhibitory concentration (IC50) in test [1] was determined as 20 nM; in test [2], 4 nM. Compound `CC(C)(C)OC(=O)NCCC[C@H](NS(=O)(=O)c1ccc(-c2ccc(Cl)cc2)cc1)C(=O)O` [Example 36] had an IC50 in test [2] of 2 nM.

Regarding `Cc1oncc1C(=O)NCCCC[C@@H](NS(=O)(=O)CCc1ccc(-c2ccccc2)cc1)C(=O)O` [Example 168], the IC50 in test [1] amounted to 40 nM; in test [2], 20 nM.

In the case of `O=C(O)[C@H](CCCNC(=O)N1CCOCC1)NS(=O)(=O)c1ccc(-c2ccc(Cl)cc2)cc1` [Example 128], the IC50 worked out at 5 nM in test [1] and 2 nM in test [2]. With `COCC(=O)NCCC[C@H](NS(=O)(=O)c1ccc(-c2ccc(Cl)cc2)cc1)C(=O)O` [Example 98], the IC50 is 10 nM in test [1] and 3 nM in test [2]. The matching figures for `Cc1ccc(C(=O)NCCC[C@H](NS(=O)(=O)c2ccc(-c3ccc(Cl)cc3)cc2)C(=O)O)s1` [Example 120]: 20 nM and 4 nM. Turning to `O=C(O)C1CC1C(=O)NCCC[C@H](NS(=O)(=O)c1ccc(-c2ccc(Cl)cc2)cc1)C(=O)O` (stereo partly shown) [Example 64], the figures for the IC50 in test [1] and in test [2] were 30 nM and 2 nM, respectively. Regarding `O=C(NCCC[C@H](NS(=O)(=O)c1ccc(-c2ccc(Cl)cc2)cc1)C(=O)O)c1ccc(O)cc1` [Example 102], the concentration for half-maximal inhibition (IC50) in test [1] stood at 20 nM; in test [2], 5 nM.

Regarding `O=C(NCCC[C@H](NS(=O)(=O)c1ccc(-c2ccc(Cl)cc2)cc1)C(=O)O)c1ccc2ccccc2c1` [Example 110], the figures for the IC50 in test [1] and in test [2] were 40 nM and 20 nM, respectively.

With `O=C(CC(C(=O)O)c1ccccc1)NCCC[C@@H](NS(=O)(=O)c1ccc(-c2ccc(Cl)cc2)cc1)C(=O)O` (single isomer, unassigned) [Example 39], the IC50 in test [1] was determined as 20 nM; in test [2] it was 30 nM. As to `O=C(NCCC[C@H](NS(=O)(=O)c1ccc(-c2ccc(Cl)cc2)cc1)C(=O)O)c1ccc(F)cc1F` [Example 86], the results for the IC50 in test [1] and in test [2] were 20 nM and 4 nM, respectively. The matching figures for `Nc1ccc(C(=O)NCCC[C@H](NS(=O)(=O)c2ccc(-c3ccc(Cl)cc3)cc2)C(=O)O)cc1` [Example 107]: 10 nM and 4 nM. The matching figures for `Cc1ccsc1C(=O)NCCC[C@H](NS(=O)(=O)c1ccc(-c2ccc(Cl)cc2)cc1)C(=O)O` [Example 100]: 4 nM and 2 nM. The matching figures for `CN(C)c1ccc(-c2ccc(S(=O)(=O)N[C@@H](CCCNC(=O)OC(C)(C)C)C(=O)O)cc2)cc1` [Example 59]: 5 nM and 1 nM.

For `O=C(NCCC[C@H](NS(=O)(=O)c1ccc(-c2ccc(Cl)cc2)cc1)C(=O)O)OCc1ccccc1` [Example 15], the IC50 in test [1] came to 20 nM; in test [2], 8 nM. For `O=C(NCCC[C@H](NS(=O)(=O)c1ccc(-c2ccc(Cl)cc2)cc1)C(=O)O)c1ccc(C(F)(F)F)cc1F` [Example 109], the IC50 in test [1] came to 20 nM; in test [2], 7 nM. The matching figures for `COc1cc(Cl)cc(C(=O)NCCC[C@H](NS(=O)(=O)c2ccc(-c3ccc(Cl)cc3)cc2)C(=O)O)c1` [Example 156]: 60 nM and 20 nM. The matching figures for `O=C(NCCC[C@H](NS(=O)(=O)c1ccc(-c2ccc(Cl)cc2)cc1)C(=O)O)c1ccccc1Cl` [Example 83]: 7 nM and 3 nM. Turning to `O=C(NCCC[C@H](NS(=O)(=O)c1ccc(-c2ccc(Cl)cc2)cc1)C(=O)O)c1ccccc1C(F)(F)F` [Example 129], the IC50 was found to be 10 nM in test [1] and 2 nM in test [2]. For `O=C(NCCCC[C@H](NS(=O)(=O)c1ccc(-c2ccc(Cl)cc2)cc1)C(=O)O)OCc1ccccc1` [Example 16], the IC50 in test [1] was 20 nM; in test [2], 10 nM. On to `CC(C)(C)C(=O)NCCC[C@H](NS(=O)(=O)c1ccc(-c2ccc(Cl)cc2)cc1)C(=O)O` [Example 57], for which the IC50 in test [1] came out at 40 nM; in test [2], 8 nM. For the compound `COc1ccc(S(=O)(=O)NCCC[C@H](NS(=O)(=O)c2ccc(-c3ccc(Cl)cc3)cc2)C(=O)O)cc1` [Example 56], the figures for the IC50 in test [1] and in test [2] were 10 nM and 8 nM, respectively. For `O=C(NCCC[C@H](NS(=O)(=O)c1ccc(-c2ccc(Cl)cc2)cc1)C(=O)O)c1ccc(C(F)(F)F)cc1` [Example 72], the IC50 was found to be 20 nM in test [1] and 6 nM in test [2]. The matching figures for `NS(=O)(=O)c1ccc(C(=O)NCCC[C@H](NS(=O)(=O)c2ccc(-c3ccc(Cl)cc3)cc2)C(=O)O)cc1` [Example 142]: 10 nM and 4 nM.
